Assay [1] has as its target T1, Kappa-type opioid receptor (Homo sapiens, UniProt P41145). It counts as functional, cell-based, CHO.
Description: Agonist activity at human opioid kappa receptor expressed in CHO cells assessed as stimulation of [35S]GTPgammaS binding
Assay [2] has as its target T1, Kappa-type opioid receptor. Nature of the assay: biochemical. It is filed as cell-based, CHO.
Description: Displacement of [3H]U-69593 from human opioid kappa receptor expressed in CHO cells
Assay [3] deals with T2, Mu-type opioid receptor (Homo sapiens, UniProt P35372).
Description: Agonist activity at human opioid gamma receptor expressed in CHO cells assessed as inhibition of DAGO-stimulated [35S]GTPgammaS binding
The target in assay [4] is T2, Mu-type opioid receptor. This is another data set of the same source.
Description: Agonist activity at human opioid gamma receptor expressed in CHO cells assessed as stimulation of [35S]GTP-gamma-S binding
The target of assay [5] is Delta-type opioid receptor (Homo sapiens, UniProt P41143). The assay is described as follows: biochemical. It counts as cell-based, CHO.
Chain of Delta-type opioid receptor (P41143 whole entry): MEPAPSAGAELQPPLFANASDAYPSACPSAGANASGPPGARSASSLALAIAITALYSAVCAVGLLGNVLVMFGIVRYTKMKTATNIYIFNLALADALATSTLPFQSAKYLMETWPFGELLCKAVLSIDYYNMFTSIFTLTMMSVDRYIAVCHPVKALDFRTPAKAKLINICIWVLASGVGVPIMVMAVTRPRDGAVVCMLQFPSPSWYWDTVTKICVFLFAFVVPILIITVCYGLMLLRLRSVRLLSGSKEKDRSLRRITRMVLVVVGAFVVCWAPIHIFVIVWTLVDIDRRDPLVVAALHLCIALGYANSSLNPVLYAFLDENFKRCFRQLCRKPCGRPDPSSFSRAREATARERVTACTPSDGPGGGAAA
Description: Displacement of [3H]naltrindole from human opioid delta receptor expressed in CHO cells
For assay [6], the target named is T2, Mu-type opioid receptor. The assay is described as follows: biochemical.
Description: Displacement of [3H]DAMGO from human opioid gamma receptor expressed in CHO cells
The target in assay [7] is T1, Kappa-type opioid receptor.
Description: Antagonist activity at human opioid kappa receptor expressed in CHO cells assessed as inhibition of U-50488-stimulated [35S]GTP-gamma-S binding

T1 sequence (P41145 whole entry): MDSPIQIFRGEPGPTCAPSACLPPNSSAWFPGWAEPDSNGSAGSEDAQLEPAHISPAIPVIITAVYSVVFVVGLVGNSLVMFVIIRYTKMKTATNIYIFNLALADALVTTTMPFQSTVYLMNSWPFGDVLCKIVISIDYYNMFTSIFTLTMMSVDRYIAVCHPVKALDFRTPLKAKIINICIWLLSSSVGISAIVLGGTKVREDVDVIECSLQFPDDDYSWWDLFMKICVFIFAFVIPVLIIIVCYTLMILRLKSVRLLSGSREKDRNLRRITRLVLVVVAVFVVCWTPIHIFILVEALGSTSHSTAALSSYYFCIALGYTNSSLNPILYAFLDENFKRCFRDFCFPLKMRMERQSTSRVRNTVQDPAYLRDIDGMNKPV
T2 sequence (P35372 whole entry): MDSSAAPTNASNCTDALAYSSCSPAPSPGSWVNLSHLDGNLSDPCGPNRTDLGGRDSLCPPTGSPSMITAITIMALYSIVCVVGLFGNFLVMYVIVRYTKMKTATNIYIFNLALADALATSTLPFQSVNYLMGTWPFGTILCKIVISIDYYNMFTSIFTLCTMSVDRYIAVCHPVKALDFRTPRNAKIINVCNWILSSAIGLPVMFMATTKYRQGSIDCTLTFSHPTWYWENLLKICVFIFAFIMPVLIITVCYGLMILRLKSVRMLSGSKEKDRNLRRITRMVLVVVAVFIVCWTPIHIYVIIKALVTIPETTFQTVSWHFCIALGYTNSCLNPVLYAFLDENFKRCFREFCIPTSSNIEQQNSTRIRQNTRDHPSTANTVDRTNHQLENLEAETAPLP

On to `O=C(O)CCCCCCCCC(=O)Oc1ccc2c(c1)[C@@]13CCCCC1[C@@H](C2)N(CC1CCC1)CC3` (some centres undefined), for which the EC50 in assay [1] is 28 nM.
For the compound `O=C(CCCCCCCCC(=O)Oc1ccc2c3c1O[C@H]1C(=O)CC[C@@]4(O)[C@@H](C2)N(CC2CC2)CC[C@]314)Oc1ccc2c(c1)[C@@]13CCCCC1[C@@H](C2)N(CC1CCC1)CC3` (some centres undefined), the Ki in assay [2] turned out to be 0.12 nM; in assay [5], 15 nM; at Mu-type opioid receptor [6], 0.29 nM. Further, the IC50 against Mu-type opioid receptor [3] came to 160 nM. Besides, the results for the EC50 (at Mu-type opioid receptor [4]; in assay [1]) were 4.4 nM and 3.4 nM, respectively.
Take `C=CCN1CC[C@]23c4c5ccc(OC(=O)CCCCCCCCC(=O)Oc6ccc7c(c6)[C@@]68CCCCC6[C@@H](C7)N(CC6CCC6)CC8)c4O[C@H]2C(=O)CC[C@@]3(O)[C@H]1C5` (some centres undefined): the inhibitory constant (Ki) in assay [2] came out at 0.13 nM; in assay [5], 39 nM; on Mu-type opioid receptor [6] it was 0.43 nM. This compound also yielded a concentration for half-maximal inhibition (IC50) at Mu-type opioid receptor [3] of 25 nM. Further, the EC50 was 2 nM at Mu-type opioid receptor [4] and 1.6 nM in assay [1].
With `O=C(CCCCCCCCC(=O)Oc1ccc2c3c1O[C@H]1[C@H](O)CC[C@@]4(O)[C@@H](C2)N(CC2CCC2)CC[C@]314)Oc1ccc2c(c1)[C@@]13CCCCC1[C@@H](C2)N(CC1CCC1)CC3` (some centres undefined), the Ki in assay [2] came out at 0.34 nM; in assay [5] it was 28 nM; on Mu-type opioid receptor [6], 0.46 nM. Further, the IC50 against Mu-type opioid receptor [3] was determined as 18 nM; in assay [7] it was 600 nM. Besides, the EC50 in assay [1] turned out to be 3.2 nM.

The values are drawn from ChEMBL document CHEMBL1147138 (J Med Chem, 2007).
